Results taken from US10570122B2, “Compounds with anti-tumoral activity” (AB Science, priority 2015, dated 2020).

How the values were obtained:
MESSA = test: CellTiter-Blue cell-based survival/proliferation assay, MESSA; conditions: Homo sapiens, MES-SA; MESSA ovary tumor cell line, 48 h
Procedure, shortened: (§1)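 Compounds, diluted tenfold serially over 0–10 μM, are applied to 1·10^4 seeded cells per well for 48 h at 37 °C. Resorufin formed during a further 4 h with CellTiter-Blue is detected by fluorescence emission at 590 nm.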

HEP2 = test: CellTiter-Blue cell-based survival/proliferation assay, HEP2; conditions: Homo sapiens, HEp-2; HEP2 head & neck tumor cell line, 48 h
Procedure, shortened: as §1

KARPAS299 = test: CellTiter-Blue cell-based survival/proliferation assay, KARPAS299; conditions: Homo sapiens, KARPAS-299, Lymphoma cell line KARPAS299, 48 h, read-out: Anti-tumoral activity (measured IC50) KARPAS299
Procedure, shortened: as §1

PC3 = test: CellTiter-Blue cell-based survival/proliferation assay, PC3; conditions: Homo sapiens, PC-3; PC3 prostate tumor cell line, 48 h
Procedure, shortened: as §1

SW579 = test: CellTiter-Blue cell-based survival/proliferation assay, SW579; conditions: Homo sapiens; SW579 head & neck tumor cell line, 48 h
Procedure, shortened: as §1

PLCPRF5 = test: CellTiter-Blue cell-based survival/proliferation assay, PLCPRF5; conditions: Homo sapiens, PLC-PRF-5; PLC_PRF5 liver tumor cell line, 48 h
Procedure, shortened: as §1

AGS = test: CellTiter-Blue cell-based survival/proliferation assay, AGS; conditions: Homo sapiens; AGS stomach tumor cell line, 48 h
Procedure, shortened: as §1

HCT116 = test: CellTiter-Blue cell-based survival/proliferation assay, HCT116; conditions: Homo sapiens, HCT-116; HCT116 colorectal tumor cell line, 48 h
Procedure, shortened: as §1

BXPC3 = test: CellTiter-Blue cell-based survival/proliferation assay, BXPC3; conditions: Homo sapiens, BXPC-3; BXPC3 pancreas tumor cell line, 48 h
Procedure, shortened: as §1

MDAMB231 = test: CellTiter-Blue cell-based survival/proliferation assay, MDAMB231; conditions: Homo sapiens, MDA-MB-231; MDAMB231 breast tumor cell line, 48 h
Procedure, shortened: as §1

[1] = tested on: panel of about 34 human tumor cell lines; test: Cell-based proliferation screening on panel of tumor cell lines; conditions: solid tumor cell line, cell line unknown, 48 h, read-out: IC50, solid tumor cell line of column 6 (last section of Table 3)
Procedure, shortened: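 CellTiter-Blue survival assay with 1·10^4 cells/well, each line treated 48 h at 37° C with 1/10 serial dilutions from 0 to 10 μM. Resorufin formed during a 4 h reagent incubation is read by fluorescence at 590 nm. A cell-free blank serves as background.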

ACHN = test: CellTiter-Blue cell-based survival/proliferation assay, ACHN; conditions: Homo sapiens; ACHN kidney tumor cell line, 48 h
Procedure, shortened: as §1

HGC27 = test: CellTiter-Blue cell-based survival/proliferation assay, HGC27; conditions: Homo sapiens, HGC-27; HGC27 stomach tumor cell line, 48 h
Procedure, shortened: as §1

CLS354 = test: CellTiter-Blue cell-based survival/proliferation assay, CLS354; conditions: Homo sapiens, CLS-354; CLS354_4 head & neck tumor cell line, 48 h
Procedure, shortened: as §1

HUT78 = test: CellTiter-Blue cell-based survival/proliferation assay, HUT78; conditions: Homo sapiens, Lymphoma cell line HUT78, 48 h, read-out: Anti-tumoral activity (measured IC50) HUT78
Procedure, shortened: as §1

H1299 = test: CellTiter-Blue cell-based survival/proliferation assay, H1299; conditions: Homo sapiens, NCI-H1299; H1299 lung tumor cell line, 48 h
Procedure, shortened: as §1

BT20 = test: CellTiter-Blue cell-based survival/proliferation assay, BT20; conditions: Homo sapiens, BT-20; BT20 breast tumor cell line, 48 h
Procedure, shortened: as §1

TOV112D = test: CellTiter-Blue cell-based survival/proliferation assay, TOV112D; conditions: Homo sapiens; TOV112D ovary tumor cell line, 48 h
Procedure, shortened: as §1

CALU6 = test: CellTiter-Blue cell-based survival/proliferation assay, CALU6; conditions: Homo sapiens, Calu-6; CALU6 lung tumor cell line, 48 h
Procedure, shortened: as §1

HL60 = test: CellTiter-Blue cell-based survival/proliferation assay, HL60; conditions: Homo sapiens, HL-60, Leukemia cell line HL60, 48 h, read-out: Anti-tumoral activity (measured IC50) HL60
Procedure, shortened: as §1

PANC1 = test: CellTiter-Blue cell-based survival/proliferation assay, PANC1; conditions: Homo sapiens, PANC-1; PANC_1 pancreas tumor cell line, 48 h
Procedure, shortened: as §1

A498 = test: CellTiter-Blue cell-based survival/proliferation assay, A498; conditions: Homo sapiens; A498 kidney tumor cell line, 48 h
Procedure, shortened: as §1

OPM2 = test: CellTiter-Blue cell-based survival/proliferation assay, OPM2; conditions: Homo sapiens, OPM-2, Myeloma cell line OPM2, 48 h, read-out: Anti-tumoral activity (measured IC50) OPM2
Procedure, shortened: as §1

HEPG2 = test: CellTiter-Blue cell-based survival/proliferation assay, HEPG2; conditions: Homo sapiens; HEPG2 liver tumor cell line, 48 h
Procedure, shortened: as §1

REC1 = test: CellTiter-Blue cell-based survival/proliferation assay, REC1; conditions: Homo sapiens, Lymphoma cell line REC1, 48 h, read-out: Anti-tumoral activity (measured IC50) REC1
Procedure, shortened: as §1

A549 = test: CellTiter-Blue cell-based survival/proliferation assay, A549; conditions: Homo sapiens; A549 lung tumor cell line, 48 h
Procedure, shortened: as §1

DLD1 = test: CellTiter-Blue cell-based survival/proliferation assay, DLD1; conditions: Homo sapiens, DLD-1; DLD_1 colorectal tumor cell line, 48 h
Procedure, shortened: as §1

DU145 = test: CellTiter-Blue cell-based survival/proliferation assay, DU145; conditions: Homo sapiens, DU-145; DU145 prostate tumor cell line, 48 h
Procedure, shortened: as §1

Row | SMILES | IC50 (MESSA) [nM] | IC50 (HEP2) [nM] | IC50 (KARPAS299) [nM] | IC50 (PC3) [nM] | IC50 (SW579) [nM] | IC50 (PLCPRF5) [nM] | IC50 (AGS) [nM] | IC50 (HCT116) [nM] | IC50 (BXPC3) [nM] | IC50 (MDAMB231) [nM] | IC50 [1] [nM] | IC50 (ACHN) [nM] | IC50 (HGC27) [nM] | IC50 (CLS354) [nM] | IC50 (HUT78) [nM] | IC50 (H1299) [nM] | IC50 (BT20) [nM] | IC50 (TOV112D) [nM] | IC50 (CALU6) [nM] | IC50 (HL60) [nM] | further results
1 | Cc1ccc(COCCN)cc1Nc1ncc(-c2ccc(-n3cccn3)cc2)o1 [Example 024, [5-(2-Amino-ethoxymethyl)-2-methyl-phenyl]-[5-(4-pyrazol-1-yl-phenyl)-oxazol-2-yl]-amine] | > 1000 | > 1000 | > 1000 | > 1000 | > 1000 | > 1000 | > 1000 | > 1000 | > 1000 | > 1000 | > 1000 | > 1000 | > 1000 | > 1000 | > 1000 | > 1000 | > 1000 | > 1000 | > 1000 | > 1000 | IC50 (PANC1): > 1000 nM; IC50 (A498): > 1000 nM; IC50 (OPM2): > 1000 nM; IC50 (HEPG2): > 1000 nM; IC50 (REC1): > 1000 nM; IC50 (A549): > 1000 nM; IC50 (DLD1): > 1000 nM; IC50 (DU145): > 1000 nM
2 | CNC(=O)c1ccc(C)c(Nc2ncc(-c3ccc(-n4cccn4)cc3)o2)c1 [Example 031, 4,N-Dimethyl-3-[5-(4-pyrazol-1-yl-phenyl)-oxazol-2-ylamino]-benzamide] | > 1000 | > 1000 | 100 to 500 | > 1000 | > 1000 | > 1000 | > 1000 | > 1000 | > 1000 | > 1000 | > 1000 | > 1000 | > 1000 | > 1000 | > 1000 | > 1000 | > 1000 | > 1000 | > 1000 | > 1000 | IC50 (PANC1): > 1000 nM; IC50 (A498): > 1000 nM; IC50 (OPM2): > 1000 nM; IC50 (HEPG2): > 1000 nM; IC50 (REC1): > 1000 nM; IC50 (A549): > 1000 nM; IC50 (DLD1): > 1000 nM; IC50 (DU145): > 1000 nM
3 | CCOCc1ccc(C)c(Nc2ncc(-c3ccc(-n4ccnn4)cc3)o2)c1 [Example 035, (5-Ethoxymethyl-2-methyl-phenyl)-[5-(4-[1,2,3]triazol-1-yl-phenyl)-oxazol-2-yl]-amine] | > 1000 | > 1000 | 500 to 1000 | > 1000 | > 1000 | > 1000 | > 1000 | > 1000 | > 1000 | > 1000 | > 1000 | > 1000 | > 1000 | > 1000 | 500 to 1000 | > 1000 | > 1000 | 500 to 1000 | > 1000 | > 1000 | IC50 (PANC1): > 1000 nM; IC50 (A498): > 1000 nM; IC50 (OPM2): > 1000 nM; IC50 (HEPG2): > 1000 nM; IC50 (REC1): 500 to 1000 nM; IC50 (A549): > 1000 nM; IC50 (DLD1): > 1000 nM; IC50 (DU145): > 1000 nM
4 | CCOCc1ccc(C)c(Nc2ncc(-c3ccc(N4CCN(CCN)C4=O)cc3)o2)c1 [Example 045, 1-(2-Amino-ethyl)-3-{4-[2-(5-ethoxymethyl-(2-methyl-phenylamino))-oxazol-5-yl]-phenyl}-imidazolidin-2-one] | > 1000 | > 1000 | > 1000 | > 1000 | > 1000 | > 1000 | > 1000 | > 1000 | > 1000 | > 1000 | > 1000 | > 1000 | > 1000 | > 1000 | > 1000 | > 1000 | > 1000 | > 1000 | > 1000 | > 1000 | IC50 (PANC1): > 1000 nM; IC50 (A498): > 1000 nM; IC50 (OPM2): > 1000 nM; IC50 (HEPG2): > 1000 nM; IC50 (REC1): > 1000 nM; IC50 (A549): > 1000 nM; IC50 (DLD1): > 1000 nM; IC50 (DU145): > 1000 nM
